Results as given in US20050153932A1, “Controlled muscle relaxation” (priority 2003, published 2005).
Read-outs that look alike come from different tables or passages of the source.

Experiments:
[1] = tested on: M. adductor pollicis contractions; experiment: Vecuronium-induced block of M. adductor pollicis contractions (TOF stimulation) and effect of Org 25969 in anaesthetised Rhesus monkeys; assay type: in vivo, Rhesus monkey
Description: • T1: first twitch: amplitude of the first response to TOF stimulation, expressed as percentage of control T1 (%). • T4/T1 ratio: the ratio of T4 over T1 (within one TOF stimulus) expressed as decimals.
Female Rhesus monkeys were starved overnight and sedated with 10 mg·kg^−1 ketamine i.m., followed by i.v. injection of 25 mg·kg^−1 pentobarbitone sodium and subsequent infusion of 5-10 mg·kg^−1hr^−1. The animals were intubated and ventilated with a mixture of oxygen and nitrous oxide (2:3), using a ventilator. The expired CO2 level was measured using a capnograph. The tidal volume was adjusted to obtain a CO2 level of approximately 4.5%. Oxygen saturation was measured via a probe on the earlobe using a pulse oxymeter. Blood pressure was measured non-invasively with a cuff placed on the tail. The ECG was recorded and heart rate was measured. Rectal temperature was measured and body temperature was kept at 37-38° C. using a heating blanket. The right hand and right arm of the animal were fixed to a frame using surgical tape. The thumb was connected to a force transducer. A pre-load of 200-500 mN was applied. Two needle electrode were placed near the N. ulnaris and the nerve was stimulated with train-of-four pulses (pulse duration: 2 ms, train-frequency: 0.07 Hz). At the end of the experiment, the animals were allowed to recover from anesthesia. Appropriate recovery care was given to all animals. Two groups of monkeys were used to assess the reversal effects of Org 25969 against the neuromuscular blocking agents rocuronium (Esmeron®/Zemuron®) and vecuronium (Norcuron®). In the first group, animals initially received an intravenous bolus injection of a 1×ED90 dose of rocuronium bromide to induce neuromuscular block, followed by spontaneous recovery of the twitches. After complete recovery of the twitches, each group received a second and larger 5×ED90 dose of rocuronium followed by spontaneous recovery in one subgroup, whereas the other subgroup received an intravenous bolus dose of 1150 nmol·kg^−1 Org 25969 as soon as all twitches had disappeared. In the vecuronium groups of animals, the same protocol was used, but rocuronium was replaced by vecuronium. Rocuronium bromide and vecuronium bromide were dissolved in a citric acid/phosphate/mannitol buffer (pH 4.0). Org 25969 was dissolved in saline.

rocuronium-induced block = experiment: Reversal of rocuronium-induced block in several animal models; assay type: in vivo; settings: guinea pigs, cats and monkeys
[2] = Org 25969 with rapacuronium; compared with rocuronium (about 15.10^6 M^−1); cited from earlier work
[3] = Org 25969 with pancuronium; cited from earlier work
[4] = tested on: neuromuscular block in a patient; settings: cited from earlier work; for Time to >80% block: value (range)
[5] = 5× ED90 vecuronium + 1150 nmol · kg^−1 Org 25969 i.v.
[6] = 5× ED90 vecuronium in the subgroup given 1150 nmol · kg^−1 Org 25969 once all twitches had disappeared
[7] = rocuronium 0.45 mg.kg−1, n = 50
[8] = rocuronium 0.6 mg.kg−1, n = 142

## O=C(O)CCSC[C@H]1O[C@@H]2O[C@H]3[C@H](O)[C@@H](O)[C@@H](O[C@H]4[C@H](O)[C@@H](O)[C@@H](O[C@H]5[C@H](O)[C@@H](O)[C@@H](O[C@H]6[C@H](O)[C@@H](O)[C@@H](O[C@H]7[C@H](O)[C@@H](O)[C@@H](O[C@H]8[C@H](O)[C@@H](O)[C@@H](O[C@H]9[C@H](O)[C@@H](O)[C@@H](O[C@H]1[C@H](O)[C@H]2O)O[C@@H]9CSCCC(=O)O)O[C@@H]8CSCCC(=O)O)O[C@@H]7CSCCC(=O)O)O[C@@H]6CSCCC(=O)O)O[C@@H]5CSCCC(=O)O)O[C@@H]4CSCCC(=O)O)O[C@@H]3CSCCC(=O)O [Org 25969, 6-per-deoxy-6-per-(2-carboxyethyl)thio-γ-cyclodextrin]
[1]; 1150 nmol·kg^−1 Org 25969 i.v. after 5×ED90 vecuronium
  effect on recovery from vecuronium-induced block (in words): initial improvement of the time to 25% and 50% recovery values, but the recovery slowed down
[1]; [5]
  0.50-0.90 TOF ratio interval: 24.2 ± 3.9 min
  25-75% recovery index: 16.1 ± 3.7 min
  time to 25% recovery of T1: 9.7 ± 1.9 min
  time to 90% recovery of T1: 35.8 ± 7.1 min
  time to TOF ratio 0.90: 48.6 ± 8.3 min
[1]; [6]
  block: 100.0 ± 0.0%
  onset time: 1.0 ± 0.2 min
rocuronium-induced block
  reversal of rocuronium-induced block: rapidly reverse rocuronium-induced block
[2]
  affinity (association constant): about the same
[3]
  affinity (association constant): about 2.6.10^6 M^−1

## C=CC[N+]1([C@H]2C[C@H]3[C@@H]4CC[C@H]5C[C@H](O)[C@@H](N6CCOCC6)C[C@]5(C)[C@H]4CC[C@]3(C)[C@H]2OC(C)=O)CCCC1 [rocuronium, rocuronium bromide]
[4]; neuromuscular block, clinical use
  ED95: 0.30 mg/kg
[4]; [7]
  Clinical duration (time until return to 25% of control T1): 22 min
  Time to maximum block: 3.0 min
  Time to >80% block: 1.3 (0.8-6.2) min
[4]; [8]
  Clinical duration (time until return to 25% of control T1): 31 min
  Time to maximum block: 1.8 min
  Time to >80% block: 1.0 (0.4-6.0) min
[4]; rocuronium 0.9 mg.kg−1, n = 20
  Clinical duration (time until return to 25% of control T1): 58 min
  Time to maximum block: 1.4 min
  Time to >80% block: 1.1 (0.3-3.8) min
[4]; rocuronium 1.2 mg.kg−1, n = 18
  Clinical duration (time until return to 25% of control T1): 67 min
  Time to maximum block: 1.0 min
  Time to >80% block: 0.7 (0.4-1.7) min
